Reference: publication PMC12217461 (Antimicrobial Agents and Chemotherapy, 2025)

What was measured:
Type in all cases: cell-based
E. coli NDM-1* (S262G) = assay: MIC broth microdilution, recombinant E. coli; details: Escherichia coli, TAN/XER fixed at 4 µg/mL, XER 8 µg/mL in MEM-XER, read-out: Minimal inhibitory concentration
Excerpt: (§1) Genes encoding different acquired IMP-like enzymes suspected to be resistant to XER (blaIMP-6, blaIMP-7, blaIMP-10, blaIMP-14, blaIMP-26, blaIMP-34, and blaIMP-59) were amplified by PCR, and corresponding amplicons were cloned into plasmid pUCP24 and expressed in E. coli TOP10. The following recombinant E. coli strains producing IMP-1, IMP-4, IMP-19, and NDM-1 were used from a previous study ([16]). […] For that purpose, a list of primers was designed and provided as Table S1. […] The nomenclature used in this study was according to the BBL sequence numbering ([52]).
(§2) To assess the inhibitory potency of XER, susceptibility testing was performed by broth microdilution method, determining the minimal inhibitory concentrations (MICs) of different antibiotics or antibiotic plus β-lactamase inhibitor combinations, including cefepime (FEP), imipenem (IPM), meropenem (MEM), and their combinations with XER (FEP-XER, IPM-XER, and MEM-XER). All data obtained with XER-based combinations were compared with data with TAN-based combinations, FEP-TAN, IPM-TAN, and MEM-TAN ([16]). FEP was purchased from Sigma-Aldrich (Saint-Louis, USA), whereas MEM was from HuiChem (Shanghai, China). […] MICs were determined in triplicate in cation-adjusted Mueller-Hinton (MH) broth (Bio-Rad, Marnes-la-Coquette, France) according to the CLSI guidelines ([53]). The results were interpreted according to the decrease in MIC value for the same antibiotic or combination of the corresponding recombinant strain producing the MBL enzyme. […] In a recent phase I clinical evaluation, XER was combined with cefiderocol. However, as this latter β-lactam substrate is known to be poorly hydrolyzed by IMP enzymes, it was not considered for the evaluation of XER inhibitory activity in this study. Instead, carbapenems were used as a substrate to evaluate the β-lactamase IMP activity in the presence or absence of XER and TAN, as it was deemed more specific for the IMP carbapenemase activity.

[1] = tested on: E. coli IMP-14 Mutant 4 (D227Y); assay: MIC broth microdilution, recombinant E. coli; details: Escherichia coli; IMP-14 D227Y; TAN/XER fixed at 4 µg/mL, XER 8 µg/mL in MEM-XER; read-out: Minimal inhibitory concentration
Excerpt: as §1, §2

E. coli IMP-6 = assay: MIC broth microdilution, recombinant E. coli; details: Escherichia coli, IMP6; IMP-1-like, S262G; TAN/XER fixed at 4 µg/mL, XER 8 µg/mL in MEM-XER; read-out: Minimal inhibitory concentration
Excerpt: as §1, §2

[2] = tested on: Enterobacter xiangfangensis SMART 409; assay: microbe, parasite or virus in culture; details: Enterobacter hormaechei, SMART409, read-out: Minimal inhibitory concentration
Description: (§3) Most isolates and their respective β-lactamase content were characterized by whole-genome sequencing.
as §2

[3] = tested on: Klebsiella pneumoniae SMART 878; assay: microbe, parasite or virus in culture; details: for MIC: Klebsiella pneumoniae, SMART878, read-out: Minimal inhibitory concentration
Description: as §3, §2

[4] = tested on: Enterobacter hormaechei subsp. steigerwaltii SMART 1234; assay: microbe, parasite or virus in culture; details: read-out: Minimal inhibitory concentration
Description: as §3, §2

[5] = tested on: Klebsiella pneumoniae SMART 1133; assay: microbe, parasite or virus in culture; details: SMART1133, IMP-1, CTX-M-2, TAN/XER fixed at 4 µg/mL, XER 8 µg/mL in MEM-XER, read-out: Minimal inhibitory concentration
Description: as §3, §2

[6] = tested on: Enterobacter hormaechei subsp. oharae SMART 1260; assay: microbe, parasite or virus in culture; details: read-out: Minimal inhibitory concentration
Description: as §3, §2

Serratia marcescens SM1 = assay: microbe, parasite or virus in culture; details: IMP-11, TAN/XER fixed at 4 µg/mL, XER 8 µg/mL in MEM-XER, read-out: Minimal inhibitory concentration
Description: as §3, §2

[7] = tested on: Enterobacter hormaechei subsp. steigerwaltii SMART 398; assay: microbe, parasite or virus in culture; details: read-out: Minimal inhibitory concentration
Description: as §3, §2

[8] = tested on: Klebsiella pneumoniae SMART 1131; assay: microbe, parasite or virus in culture; details: SMART1131, IMP-6, CTX-M-2, TAN/XER fixed at 4 µg/mL, XER 8 µg/mL in MEM-XER, read-out: Minimal inhibitory concentration
Description: as §3, §2

[9] = tested on: Klebsiella pneumoniae SMART 1137; assay: microbe, parasite or virus in culture; details: SMART1137, read-out: Minimal inhibitory concentration
Description: as §3, §2

[10] = tested on: Escherichia coli SMART 1735; assay: microbe, parasite or virus in culture; details: SMART1735, IMP-59, TEM-1, TAN/XER fixed at 4 µg/mL, XER 8 µg/mL in MEM-XER, read-out: Minimal inhibitory concentration
Description: as §3, §2

[11] = tested on: Pseudomonas aeruginosa PA11; assay: microbe, parasite or virus in culture; details: IMP-10, TAN/XER fixed at 4 µg/mL, XER 8 µg/mL in MEM-XER, read-out: Minimal inhibitory concentration
Description: as §3, §2

[12] = tested on: Klebsiella pneumoniae Kp 5 IMP; assay: microbe, parasite or virus in culture; details: KP5IMP, read-out: Minimal inhibitory concentration
Description: as §3, §2

[13] = tested on: Citrobacter freundii SMART 958; assay: microbe, parasite or virus in culture; details: SMART958, IMP-1, OXA-142, TAN/XER fixed at 4 µg/mL, XER 8 µg/mL in MEM-XER, read-out: Minimal inhibitory concentration
Description: as §3, §2

[14] = tested on: Pseudomonas aeruginosa PA16; assay: microbe, parasite or virus in culture; details: IMP-29, TAN/XER fixed at 4 µg/mL, XER 8 µg/mL in MEM-XER, read-out: Minimal inhibitory concentration
Description: as §3, §2

[15] = tested on: Escherichia coli E. coli 7 IMP; assay: microbe, parasite or virus in culture; details: E.COLI7IMP, read-out: Minimal inhibitory concentration
Description: as §3, §2

[16] = tested on: Pseudomonas aeruginosa PA14; assay: microbe, parasite or virus in culture; details: IMP-18, TAN/XER fixed at 4 µg/mL, XER 8 µg/mL in MEM-XER, read-out: Minimal inhibitory concentration
Description: as §3, §2

[17] = tested on: Escherichia coli SMART 1132; assay: microbe, parasite or virus in culture; details: SMART1132, IMP-6, CTX-M-2, TAN/XER fixed at 4 µg/mL, XER 8 µg/mL in MEM-XER, read-out: Minimal inhibitory concentration
Description: as §3, §2

SMILES | MIC (E. coli NDM-1* (S262G)) | MIC [1] | MIC (E. coli IMP-6) | MIC [2] | MIC [3] | MIC [4] | MIC [5] | MIC [6] | MIC (Serratia marcescens SM1) | MIC [7] | MIC [8] | MIC [9] | MIC [10] | MIC [11] | MIC [12] | MIC [13] | MIC [14] | MIC [15] | MIC [16] | MIC [17] | further results
CO/N=C(\C(=O)N[C@@H]1C(=O)N2C(C(=O)[O-])=C(C[N+]3(C)CCCC3)CS[C@H]12)c1csc(N)n1 [FEP, cefepime] | 1 µg/mL | 128 µg/mL | 4 µg/mL | 4 µg/mL | 256 µg/mL | 8 µg/mL | > 256 µg/mL | 32 µg/mL | 4 µg/mL | 128 µg/mL | 64 µg/mL | > 256 µg/mL | 8 µg/mL | > 256 µg/mL | 256 µg/mL | 32 µg/mL | 16 µg/mL | > 256 µg/mL | 256 µg/mL | 128 µg/mL | 
C[C@@H](O)[C@H]1C(=O)N2C(C(=O)O)=C(SCCN=CN)C[C@H]12 [IPM, imipenem] | 0.25 µg/mL | 8 µg/mL | ≤ 0.25 µg/mL | ≤ 0.25 µg/mL | ≤ 0.25 µg/mL | ≤ 0.25 µg/mL | 128 µg/mL | ≤ 0.25 µg/mL | ≤ 0.25 µg/mL | 0.5 µg/mL | ≤ 0.25 µg/mL | 2 µg/mL | ≤ 0.25 µg/mL | 256 µg/mL | ≤ 0.25 µg/mL | 0.5 µg/mL | 16 µg/mL | 0.5 µg/mL | 128 µg/mL | ≤ 0.25 µg/mL | 
C[C@@H](O)[C@H]1C(=O)N2C(C(=O)O)=C(S[C@@H]3CN[C@H](C(=O)N(C)C)C3)[C@H](C)[C@H]12 [MEM, meropenem] | 32 µg/mL | 8 µg/mL | 64 µg/mL | ≤ 0.125 µg/mL | 4 µg/mL | 0.5 µg/mL | 64 µg/mL | 1 µg/mL | 2 µg/mL | 0.5 µg/mL | 8 µg/mL | 128 µg/mL | 0.5 µg/mL | > 256 µg/mL | 0.5 µg/mL | 4 µg/mL | 32 µg/mL | 1 µg/mL | 32 µg/mL | 4 µg/mL | Minimal inhibitory concentration ([3]; IMP-26, CTX-M-15, OXA-1, TEM-1 like, TAN/XER fixed at 4 µg/mL, XER 8 µg/mL in MEM-XER): 1 µg/mL
